In patent publication US12318462B2, “Multi-coated nanoparticles comprising multiple coating layers of chitosan and polyglutamic acid, composition for skin care comprising the same and method for manufacturing the same” (BINOTEC co., ltd., priority 2020, dated 2025):

Assay: DPPH radical scavenging ability of nanoparticles by time
Format: biochemical
Method: DPPH radical scavenging ability was measured to confirm the effect of antioxidant physiological activity according to the sustained-release release of nanoparticles according to the coating layer structure and amount of hydrogel.
50 μL of 0.2 mM 1,1-diphenyl-2-picrylhydrazyl (DPPH) was added to 100 ul of each sample solution. Then, it was stirred and reacted at room temperature for 30 minutes, and then the ELISA reader (Powerwave XS2, Biotek, USA) was used to measure the absorbance at […]. The control groups were Butylated Hydroxynisole (BHA) and Catechin.
Next, using Equation 2 below, the DPPH radical scavenging ability of each nanoparticle was calculated. DPPH radical scavenging ability (%)=(1−absorbance of sample added group/absorbance of no added group)×100 [Equation 2]

| Molecule | DPPH radical scavenging ability (18 hr) [%] | DPPH radical scavenging ability (24 hr) [%] | DPPH radical scavenging ability (48 hr) [%] |
| --- | --- | --- | --- |
| COc1ccc(O)c(C(C)(C)C)c1 [BHA, Butylated Hydroxynisole] | 93.2084 | 82.3362 | 47.0031 |
| Catechin | 93.4211 | 87.4680 | 70.5607 |
